Assay results taken from ChEMBL document CHEMBL1201862, “PubChem BioAssay data set” (2004).
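Tested at 5 concentrations; 48 h exposure; 96-well plates; endpoints linearly interpolated, else capped at highest concentration. The concentration for 50% growth inhibition is given as GI50.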 The source made the active and inactive calls. Rule as the data show it: active = GI50 up to about 1.1 µM and inactive = higher.

Key:
Assay in all cases: DTP human tumour cell line panel, 48 h
[1] = test system: 786-0
[2] = test system: A498
[3] = test system: A549
[4] = test system: ACHN
[5] = test system: BT-549
[6] = test system: CAKI-1
[7] = test system: CCRF-CEM
[8] = test system: COLO 205
[9] = test system: DU-145
[10] = test system: EKVX
[11] = test system: HCC 2998
[12] = test system: HCT-116
[13] = test system: HCT-15
[14] = test system: HL-60
[15] = test system: HOP-62
[16] = test system: HOP-92
[17] = test system: HT-29
[18] = test system: Hs-578T
[19] = test system: IGROV-1
[20] = test system: K562
[21] = test system: KM12
[22] = test system: LOX IMVI
[23] = test system: M14
[24] = test system: MCF7
[25] = test system: MDA-MB-231
[26] = test system: MDA-MB-435
[27] = test system: MDA-N
[28] = test system: MOLT-4
[29] = test system: Malme-3M
[30] = test system: NCI-H226
[31] = test system: NCI-H23
[32] = test system: NCI-H460
[33] = test system: NCI-H522
[34] = test system: NCI/ADR-RES
[35] = test system: OVCAR-3
[36] = test system: OVCAR-4
[37] = test system: OVCAR-5
[38] = test system: OVCAR-8
[39] = test system: PC-3
[40] = test system: RPMI-8226
[41] = test system: RXF 393
[42] = test system: SF-268
[43] = test system: SF-295
[44] = test system: SF-539
[45] = test system: SK-MEL-28
[46] = test system: SK-MEL-2
[47] = test system: SK-MEL-5
[48] = test system: SK-OV-3
[49] = test system: SN12C
[50] = test system: SNB-19
[51] = test system: SNB-75
[52] = test system: SR
[53] = test system: SW-620
[54] = test system: T47D
[55] = test system: TK-10
[56] = test system: U-251
[57] = test system: UACC-257
[58] = test system: UACC-62
[59] = test system: UO-31

In the case of `Cc1ccc(/N=N/c2ccc(O)c(CN(C)C)c2)cc1`, the GI50 [1] is reported as 22.3 µM (inactive), the GI50 [2] is reported as 19.1 µM (inactive) and the GI50 [3] is reported as 20.3 µM (inactive). The GI50 [4] was 17.3 µM (inactive), the GI50 [5] was 23.1 µM (inactive) and the GI50 [6] was 21.5 µM (inactive). For the same compound, the GI50 [7] was 22.8 µM (inactive), the GI50 [8] was 17.7 µM (inactive) and the GI50 [9] was 17.8 µM (inactive). For the same compound, the GI50 [10] was 22.6 µM (inactive), the GI50 [11] was 15.5 µM (inactive) and the GI50 [12] was 22.5 µM (inactive). The GI50 [13] was 20.6 µM, the GI50 [14] was 18.1 µM (inactive) and the GI50 [15] was 12.6 µM (inactive). The GI50 [16] was 12.6 µM (inactive), the GI50 [17] was 17.2 µM (inactive) and the GI50 [18] was 18.5 µM (inactive). For the same compound, the GI50 [19] was 15.1 µM (inactive), the GI50 [20] was 20 µM (inactive) and the GI50 [21] was 15.8 µM (inactive). For the same compound, the GI50 [22] was 14 µM (inactive), the GI50 [23] was 21.9 µM (inactive) and the GI50 [24] was 24.2 µM (inactive). The GI50 [25] was 20.6 µM (inactive), the GI50 [26] was 17.3 µM (inactive) and the GI50 [27] was 16.2 µM (inactive). For the same compound, the GI50 [28] was 19.2 µM (inactive), the GI50 [29] was 16.7 µM (inactive) and the GI50 [30] was 20.9 µM (inactive). For the same compound, the GI50 [31] was 36.1 µM (inactive), the GI50 [32] was 16.5 µM (inactive) and the GI50 [33] was 16.7 µM (inactive). For the same compound, the GI50 [34] was 22.6 µM (inactive), the GI50 [35] was 15.7 µM (inactive) and the GI50 [36] was 22.6 µM (inactive). The GI50 [37] was 14.4 µM (inactive), the GI50 [38] was 21.4 µM (inactive) and the GI50 [39] was 19.4 µM (inactive). The GI50 [40] was 17.8 µM (inactive), the GI50 [41] was 4.66 µM (inactive) and the GI50 [42] was 20.2 µM (inactive). For the same compound, the GI50 [43] was 18.1 µM (inactive), the GI50 [44] was 17.7 µM (inactive) and the GI50 [45] was 20 µM (inactive). The GI50 [46] was 15.2 µM (inactive), the GI50 [47] was 14.5 µM (inactive) and the GI50 [48] was 32.7 µM (inactive). For the same compound, the GI50 [49] was 35.8 µM (inactive), the GI50 [50] was 36.6 µM (inactive) and the GI50 [51] was 21.6 µM (inactive). The GI50 [52] was 24.8 µM (inactive), the GI50 [53] was 20.7 µM (inactive) and the GI50 [54] was 13.7 µM (inactive). For the same compound, the GI50 [55] was 21.7 µM (inactive), the GI50 [56] was 32.1 µM (inactive) and the GI50 [57] was 17.8 µM (inactive). For the same compound, the GI50 [58] was 20.3 µM (inactive) and the GI50 [59] was 16 µM (inactive).
For `C=C1c2nc3ccccc3n2C=C(c2ccccc2)N1c1ccc(Cl)cc1`, the GI50 [1] was 5.83 µM (inactive), the GI50 [2] was > 48.9 µM (inactive) and the GI50 [3] was 15.8 µM (inactive). For the same compound, the GI50 [4] was 9.18 µM (inactive), the GI50 [5] was 23.4 µM (inactive) and the GI50 [6] was 7.08 µM (inactive). For the same compound, the GI50 [7] was > 100 µM (inactive), the GI50 [8] was > 64.3 µM (inactive) and the GI50 [9] was 59.8 µM (inactive). The GI50 [10] was 13.4 µM (inactive), the GI50 [11] was 65.6 µM (inactive) and the GI50 [12] was 18.5 µM (inactive). For the same compound, the GI50 [13] was 33.3 µM, the GI50 [14] was > 100 µM (inactive) and the GI50 [15] was 18.7 µM (inactive). The GI50 [16] was 26.8 µM (inactive), the GI50 [17] was 18.6 µM (inactive) and the GI50 [18] was 21.3 µM (inactive). The GI50 [19] was 10.6 µM (inactive), the GI50 [20] was 51.3 µM (inactive) and the GI50 [21] was 24 µM (inactive). The GI50 [22] was 45.8 µM (inactive), the GI50 [23] was 17.1 µM (inactive) and the GI50 [24] was 11.2 µM (inactive). The GI50 [25] was 17.4 µM (inactive), the GI50 [26] was > 82.8 µM (inactive) and the GI50 [27] was 78.9 µM (inactive). For the same compound, the GI50 [28] was > 100 µM (inactive), the GI50 [29] was 7.85 µM (inactive) and the GI50 [30] was 29 µM (inactive). The GI50 [31] was 33.1 µM (inactive), the GI50 [32] was 12.6 µM (inactive) and the GI50 [33] was 11.5 µM (inactive). The GI50 [34] was 23.6 µM (inactive), the GI50 [35] was 20 µM (inactive) and the GI50 [36] was 5.74 µM (inactive). The GI50 [37] was 21.7 µM (inactive), the GI50 [38] was 25.1 µM (inactive) and the GI50 [39] was 25.7 µM (inactive). The GI50 [40] was > 55.3 µM (inactive), the GI50 [41] was 17.5 µM (inactive) and the GI50 [42] was > 100 µM (inactive). The GI50 [43] was 12.6 µM (inactive), the GI50 [44] was 7.89 µM (inactive) and the GI50 [45] was > 100 µM (inactive). For the same compound, the GI50 [46] was 69.5 µM (inactive), the GI50 [47] was 15.3 µM (inactive) and the GI50 [48] was 27.3 µM (inactive). For the same compound, the GI50 [49] was > 63.5 µM (inactive), the GI50 [50] was 46.1 µM (inactive) and the GI50 [51] was 5.12 µM (inactive). For the same compound, the GI50 [52] was 64.7 µM (inactive), the GI50 [53] was 26.5 µM (inactive) and the GI50 [54] was 12.6 µM (inactive). The GI50 [55] was 13.4 µM (inactive), the GI50 [56] was 13.1 µM (inactive) and the GI50 [57] was 32.2 µM (inactive). For the same compound, the GI50 [58] was 19.1 µM (inactive) and the GI50 [59] was 53.1 µM (inactive).
For `c1ccc(/C(=N/Nc2ccccn2)c2cccnn2)cc1`, the GI50 [1] was 1.38 µM (inactive), the GI50 [2] was > 25.3 µM (inactive) and the GI50 [3] was 2.43 µM (inactive). The GI50 [4] was 0.998 µM (active), the GI50 [5] was 13.9 µM (inactive) and the GI50 [6] was 1.75 µM (inactive). The GI50 [7] was 0.767 µM (active), the GI50 [8] was 0.741 µM (active) and the GI50 [9] was 2.62 µM (inactive). For the same compound, the GI50 [10] was 1.74 µM (inactive), the GI50 [11] was 5.37 µM (inactive) and the GI50 [12] was 2.28 µM (inactive). The GI50 [13] was 0.824 µM, the GI50 [14] was 3.61 µM (inactive) and the GI50 [15] was 2.85 µM (inactive). For the same compound, the GI50 [16] was 5.48 µM (inactive), the GI50 [17] was 1.16 µM (inactive) and the GI50 [18] was 11.8 µM (inactive). For the same compound, the GI50 [19] was 1.79 µM (inactive), the GI50 [20] was 1.47 µM (inactive) and the GI50 [21] was 2.72 µM (inactive). For the same compound, the GI50 [22] was 2.07 µM (inactive), the GI50 [23] was 1.45 µM (inactive) and the GI50 [24] was 3.43 µM (inactive). For the same compound, the GI50 [25] was 2.57 µM (inactive), the GI50 [26] was 4.73 µM (inactive) and the GI50 [27] was 7.57 µM (inactive). For the same compound, the GI50 [28] was 0.632 µM (active), the GI50 [29] was 5.4 µM (inactive) and the GI50 [30] was 1.07 µM (active). The GI50 [31] was 2.91 µM (inactive), the GI50 [32] was 1.34 µM (inactive) and the GI50 [33] was 0.441 µM (active). For the same compound, the GI50 [34] was 2.17 µM (inactive), the GI50 [35] was 1.92 µM (inactive) and the GI50 [36] was > 84.5 µM (inactive). The GI50 [37] was 7.73 µM (inactive), the GI50 [38] was 1.87 µM (inactive) and the GI50 [39] was 5.86 µM (inactive). The GI50 [40] was 2.17 µM (inactive), the GI50 [41] was 15.7 µM (inactive) and the GI50 [42] was 0.853 µM (active). The GI50 [43] was 3.11 µM (inactive), the GI50 [44] was 2.74 µM (inactive) and the GI50 [45] was > 34.2 µM (inactive). The GI50 [46] was 12.7 µM (inactive), the GI50 [47] was 2.35 µM (inactive) and the GI50 [48] was 2.58 µM (inactive). The GI50 [49] was 2.15 µM (inactive), the GI50 [50] was 10.3 µM (inactive) and the GI50 [51] was 2.78 µM (inactive). The GI50 [52] was 0.522 µM (active), the GI50 [53] was 3.44 µM (inactive) and the GI50 [54] was 9.16 µM (inactive). For the same compound, the GI50 [55] was 98.6 µM (inactive), the GI50 [56] was 4.21 µM (inactive) and the GI50 [57] was 3.94 µM (inactive). For the same compound, the GI50 [58] was 3.44 µM (inactive) and the GI50 [59] was 0.885 µM (active).
